Measured values published in patent US20100298141A1, “SUBSTITUTED PYRIDINE N-OXIDE HERBICIDES” (E. I. DU PONT DE NEMOURS AND COMPANY, priority 2007, published 2010).

Key:
[1] = tested on: common (oilseed) sunflower; assay: Test C pre-/postemergence test; type: in vivo, Helianthus annuus
In short: (§1)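 Compounds in a non-phytotoxic solvent with surfactant applied preemergence to seeded pots and, at the same time, postemergence to plants 2–18 cm tall (1- to 4-leaf stage). Paddy tests: pots flooded to 3 cm, compound applied into the water, depth held throughout.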

[2] = tested on: lambsquarters; assay: Test C pre-/postemergence test; type: in vivo, Chenopodium album
In short: as §1

[3] = tested on: redroot pigweed; assay: Test A pre-/postemergence greenhouse test; type: in vivo, Amaranthus retroflexus; settings: for Plant response rating, Pigweed: 0 to 100 scale where 0 is no effect and 100 is complete control; for Pigweed plant response rating: 0 to 100 scale
In short: (§2)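 Two application timings were run side by side in the greenhouse. Before emergence, compound went onto the soil surface of loam–sand pots as a directed spray; after emergence, plants at 2–10 cm and the one- to two-leaf stage were treated. Visual injury versus controls was rated at approximately day ten.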

[4] = tested on: rice; assay: Test C flooded paddy test; type: in vivo, Oryza sativa; settings: Flood
In short: (§3)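 Pots were flooded to 3 cm above the soil surface at treatment, compound applied directly to the paddy water, and that depth held throughout. Plants were kept in a greenhouse for 13 to 15 days, then visually rated against untreated controls.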

[5] = tested on: eastern black nightshade; assay: Test C pre-/postemergence test; type: in vivo, Solanum ptycanthum
In short: as §1

[6] = tested on: umbrella sedge; assay: Test C flooded paddy test; type: in vivo, Cyperus difformis; settings: Flood
In short: as §3

[7] = tested on: wheat; assay: Test C pre-/postemergence test; type: in vivo, Triticum aestivum
In short: as §1

[8] = tested on: Goosegrass; assay: Test C pre-/postemergence test; type: in vivo, Eleusin indica
In short: as §1

[9] = tested on: morningglory; assay: Test A pre-/postemergence greenhouse test; type: in vivo, Ipomoea spp.; settings: for Plant response rating, Morningglory: 0 to 100 scale where 0 is no effect and 100 is complete control; for Morningglory plant response rating: 0 to 100 scale
In short: as §2

[10] = tested on: wheat; assay: Test A pre-/postemergence greenhouse test; type: in vivo, Triticum aestivum; settings: for Wheat plant response rating: 0 to 100 scale
In short: as §2

[11] = tested on: crabgrass; assay: Test C pre-/postemergence test; type: in vivo, Digitaria sanguinalis
In short: as §1

[12] = tested on: bermudagrass; assay: Test C pre-/postemergence test; type: in vivo, Cynodon dactylon
In short: as §1

[13] = tested on: giant foxtail; assay: Test A pre-/postemergence greenhouse test; type: in vivo, Setaria faberi; settings: for Plant response rating, Foxtail, Giant: 0 to 100 scale where 0 is no effect and 100 is complete control; for Foxtail, Giant plant response rating: 0 to 100 scale
In short: as §2

[14] = tested on: corn; assay: Test A pre-/postemergence greenhouse test; type: in vivo, Zea mays; settings: for Plant response rating, Corn: 0 to 100 scale where 0 is no effect and 100 is complete control
In short: as §2

[15] = tested on: Surinam grass; assay: Test C pre-/postemergence test; type: in vivo, Brachiaria decumbens
In short: as §1

[16] = tested on: pigweed; assay: Test C pre-/postemergence test; type: in vivo, Amaranthus retroflexus
In short: as §1

[17] = tested on: barnyardgrass; assay: Test A pre-/postemergence greenhouse test; type: in vivo, Echinochloa crus-galli; settings: for Plant response rating, Barnyardgrass: 0 to 100 scale where 0 is no effect and 100 is complete control; for Barnyardgrass plant response rating: 0 to 100 scale
In short: as §2

[18] = 62 g ai/ha, Preemergence, scale 0 to 100
[19] = 125 g ai/ha, preemergence, scale 0 (no effect) to 100 (complete control)
[20] = Preemergence, 31 g ai/ha, scale 0 to 100 (0 no effect, 100 complete control)
[21] = preemergence, 250 g ai/ha, scale 0 (no effect) to 100 (complete control)
[22] = Postemergence, 500 g ai/ha, 0 is no effect, 100 is complete control
[23] = Preemergence, 125 g ai/ha, 0 no effect, 100 complete control
[24] = 62 g ai/ha, scale 0 to 100 (0 no effect, 100 complete control)
[25] = 250 g ai/ha, scale 0 to 100, 0 no effect, 100 complete control, 13 to 15 days

Q: Which “Sunflower plant response rating” value [1, 18] does the source give for `Cc1cc[n+]([O-])c(S(=O)(=O)Cc2c(C(F)(F)F)nn(C)c2OC(C)C(F)(F)F)c1` (stereo not drawn) [Compound 96] here?
A: The value was 0.

Q: And the “Sunflower plant response rating” value [1, 19]?
A: Its value is 0.

Q: What about the “Plant response rating, Sunflower” value [1, 20] of the same compound?
A: The value was 0.

Q: What about the “Sunflower plant response rating” value [1, 21] of the same compound?
A: The value was 30.

Q: What about the “Lambsquarters plant response rating” value [2, 18] of the same compound?
A: Its value is 100.

Q: What about the “Lambsquarters plant response rating” value [2, 19] of the same compound?
A: The value was 100.

Q: What about the “Plant response rating, Lambsquarters” value [2, 20] of the same compound?
A: Its value is 50.

Q: And the “Lambsquarters plant response rating” value [2, 21]?
A: Its value is 100.

Q: And the “Plant response rating, Pigweed” value ([3]; Postemergence, 125 g ai/ha)?
A: The value was 30.

Q: What about the “Pigweed plant response rating” value [3, 22] of the same compound?
A: The value was 80.

Q: What about the “Pigweed plant response rating” value [3, 23] of the same compound?
A: Its value is 90.

Q: And the “Plant response rating, Pigweed” value ([3]; Preemergence, 500 g ai/ha)?
A: Its value is 90.

Q: And the “Plant response rating, Rice” value [4, 24]?
A: The value was 0.

Q: What about the “Plant response rating, Rice” value [4, 25] of the same compound?
A: The value was 20.

Q: And the “Nightshade plant response rating” value [5, 18]?
A: Its value is 85.

Q: What about the “Nightshade plant response rating” value [5, 19] of the same compound?
A: The value was 95.

Q: What about the “Plant response rating, Nightshade” value [5, 20] of the same compound?
A: Its value is 75.

Q: And the “Nightshade plant response rating” value [5, 21]?
A: The value was 100.

Q: And the “Plant response rating, Sedge, Umbrella” value [6, 24]?
A: The value was 0.

Q: And the “Plant response rating, Sedge, Umbrella” value [6, 25]?
A: The value was 75.

Q: And the “Wheat plant response rating” value [7, 18]?
A: The value was 0.

Q: What about the “Wheat plant response rating” value [7, 19] of the same compound?
A: The value was 45.

Q: And the “Plant response rating, Wheat” value [7, 20]?
A: The value was 0.

Q: What about the “Wheat plant response rating” value [7, 21] of the same compound?
A: The value was 45.

Q: What about the “Goosegrass plant response rating” value [8, 18] of the same compound?
A: The value was 100.

Q: And the “Goosegrass plant response rating” value [8, 19]?
A: Its value is 100.

Q: And the “Plant response rating, Goosegrass” value [8, 20]?
A: The value was 95.

Q: And the “Goosegrass plant response rating” value [8, 21]?
A: The value was 100.

Q: And the “Plant response rating, Morningglory” value ([9]; Postemergence, 125 g ai/ha)?
A: The value was 10.

Q: And the “Morningglory plant response rating” value [9, 22]?
A: The value was 70.

Q: And the “Morningglory plant response rating” value [9, 23]?
A: The value was 20.

Q: What about the “Plant response rating, Morningglory” value ([9]; Preemergence, 500 g ai/ha) of the same compound?
A: The value was 80.

Q: And the “Plant response rating, Wheat” value ([10]; Postemergence, 125 g ai/ha, 0 to 100 scale where 0 is no effect and 100 is complete control)?
A: Its value is 50.

Q: What about the “Wheat plant response rating” value [10, 22] of the same compound?
A: The value was 70.

Q: And the “Wheat plant response rating” value [10, 23]?
A: The value was 20.

Q: What about the “Wheat plant response rating” value ([10]; Preemergence, 500 g ai/ha, 0 no effect, 100 complete control) of the same compound?
A: The value was 80.

Q: And the “Crabgrass, Large plant response rating” value [11, 18]?
A: The value was 85.

Q: What about the “Crabgrass, Large plant response rating” value [11, 19] of the same compound?
A: The value was 95.

Q: And the “Plant response rating, Crabgrass, Large” value [11, 20]?
A: The value was 80.

Q: What about the “Crabgrass, Large plant response rating” value [11, 21] of the same compound?
A: The value was 98.

Q: And the “Bermudagrass plant response rating” value ([12]; 62 g ai/ha, Preemergence, scale 0 to 100 (0 no effect, 100 complete control))?
A: Its value is 100.

Q: And the “Bermudagrass plant response rating” value [12, 19]?
A: Its value is 100.

Q: What about the “Plant response rating, Bermudagrass” value [12, 20] of the same compound?
A: Its value is 85.

Q: What about the “Bermudagrass plant response rating” value [12, 21] of the same compound?
A: The value was 100.

Q: What about the “Plant response rating, Foxtail, Giant” value ([13]; Postemergence, 125 g ai/ha) of the same compound?
A: Its value is 70.

Q: What about the “Foxtail, Giant plant response rating” value [13, 22] of the same compound?
A: Its value is 80.

Q: And the “Foxtail, Giant plant response rating” value [13, 23]?
A: The value was 100.

Q: What about the “Plant response rating, Foxtail, Giant” value ([13]; Preemergence, 500 g ai/ha) of the same compound?
A: Its value is 100.

Q: What about the “Plant response rating, Corn” value ([14]; Postemergence, 125 g ai/ha) of the same compound?
A: Its value is 20.

Q: What about the “Corn plant response rating” value ([14]; Preemergence, 125 g ai/ha, 0 to 100 scale, 0 no effect, 100 complete control) of the same compound?
A: The value was 0.

Q: And the “Plant response rating, Corn” value ([14]; Preemergence, 500 g ai/ha)?
A: Its value is 50.

Q: What about the “Surinam Grass plant response rating” value [15, 18] of the same compound?
A: The value was 80.

Q: What about the “Surinam Grass plant response rating” value [15, 19] of the same compound?
A: Its value is 100.

Q: What about the “Plant response rating, Surinam Grass” value [15, 20] of the same compound?
A: Its value is 75.

Q: What about the “Surinam Grass plant response rating” value [15, 21] of the same compound?
A: Its value is 100.

Q: What about the “Pigweed plant response rating” value [16, 18] of the same compound?
A: The value was 70.

Q: And the “Pigweed plant response rating” value [16, 19]?
A: Its value is 70.

Q: What about the “Plant response rating, Pigweed” value [16, 20] of the same compound?
A: Its value is 10.

Q: And the “Pigweed plant response rating” value [16, 21]?
A: Its value is 100.

Q: And the “Plant response rating, Barnyardgrass” value ([17]; Postemergence, 125 g ai/ha)?
A: Its value is 60.

Q: And the “Barnyardgrass plant response rating” value [17, 22]?
A: The value was 90.

Q: What about the “Barnyardgrass plant response rating” value [17, 23] of the same compound?
A: Its value is 90.

Q: What about the “Plant response rating, Barnyardgrass” value ([17]; Preemergence, 500 g ai/ha) of the same compound?
A: The value was 100.
